Laboratory results as given in article PMC5537602, “TRPA1 channel mediates organophosphate-induced delayed neuropathy” (Cell Discovery, 2017).

Columns and labels:
mTRPA1 = mTRPA1 (Mus musculus, UniProt Q8BLA8); test: Whole-cell patch-clamp, HEK293 cells expressing mTRPA1; type: cell-based; design: expressed in transfected cells; host or cells: HEK293; conditions: 30 μM, calcium-free external solution
Experimental: (§1) Human embryonic kidney 293 (HEK293) cells were cultured in DMEM containing 10% (vol/vol) heat-inactivated fetal bovine serum, 100 units ml^−1 penicillin–streptomycin and 2 mM L-glutamine at 37 °C in a humidity-controlled sterile incubator with 5% CO2. All cell culture reagents were purchased from Life Technologies. HEK293 cells were transfected transiently with the corresponding plasmids using lipofectamine 2000 (Life Technologies). Transfection efficiency was monitored by co-transfecting EGFP plasmid which codes for the enhanced green fluorescent protein. Electrophysiological recordings were performed between 24 and 36 h after transfection.
(§2) Whole-cell patch-clamp recordings in DRG neurons (small diameter, […]) and HEK293 cells were operated at room temperature (23–25 °C) using EPC-10 amplifier and Patch Master Software (HEKA). […] Currents were sampled at 10 kHz and low-pass filtered at 2.9 kHz. The internal solution was as follows (in mM): 140 CsCl, 10 HEPES, 5 EGTA, 0.1 CaCl2 and 1 MgCl2, with pH adjusted to 7.2 by CsOH and osmolarity 295–300 mOsm. The calcium-free external solution contained (in mM) 140 NaCl, 5 KCl, 0.5 EGTA, 1 MgCl2, 10 Glucose and 10 HEPES, with pH adjusted to 7.4 by NaOH and osmolarity 300–310 mOsm. The 0.5 mM EGTA was replaced by 2 mM CaCl2 for the recordings in DRG neurons. TRPA1 currents development was monitored with repetitive injections of 300 ms duration voltage ramps from −100 to +100 mV every 2 s and the holding potential was set to 0 mV for 50 ms, existing in both sides of the voltage ramp. To record inward currents in DRG neurons, we conducted voltage clamp at holding membrane potential of −70 mV. Solutions were switched using a gravity-fed continuous focal perfusion system.

hens [1] = type: in vivo, hen; conditions: hens, TOCP single dose 750 mg kg−1, end of the 21-day period
Experimental: The chosen adult Hyline Brown hens were raised individually in stainless steel wire cages. After 7 days of acclimatization, the chosen hens were randomly divided into groups (n=6–10 for each group). The hens in the delayed neuropathy groups were administered a single dose of 750 mg kg^−1 TOCP and repeated doses of 75 mg kg^−1 malathion by gavage. TOCP and malathion were dissolved in corn oil and administered at 0.65 ml kg^−1. In the HC030031 treatment groups, 100 mg kg^−1 HC030031 was administered by gavage daily beginning at day 0 or day 11. All hens were examined daily for signs of delayed neurotoxicity. A five-point graded scale was used to describe the clinical symptoms of delayed neuropathy, with 0 indicating normal ambulation; (1) suspected ataxia (lack of strength in the legs and tottering); (2) mild ataxia (slow, clumsy and unsteady gait); (3) gross ataxia (waddling gait and staggering and falling despite being active); (4) mild paralysis (typical paralytic posture and lame appearance); and (5) complete paralysis (unable to maintain posture, stand up or move at all), as described previously.

cTRPA1 = biological target: T1, cTRPA1 (Gallus gallus, UniProt W8VTH6); test: Whole-cell patch-clamp, HEK293 cells expressing cTRPA1; type: cell-based, chicken
T1 sequence (W8VTH6 1-1126): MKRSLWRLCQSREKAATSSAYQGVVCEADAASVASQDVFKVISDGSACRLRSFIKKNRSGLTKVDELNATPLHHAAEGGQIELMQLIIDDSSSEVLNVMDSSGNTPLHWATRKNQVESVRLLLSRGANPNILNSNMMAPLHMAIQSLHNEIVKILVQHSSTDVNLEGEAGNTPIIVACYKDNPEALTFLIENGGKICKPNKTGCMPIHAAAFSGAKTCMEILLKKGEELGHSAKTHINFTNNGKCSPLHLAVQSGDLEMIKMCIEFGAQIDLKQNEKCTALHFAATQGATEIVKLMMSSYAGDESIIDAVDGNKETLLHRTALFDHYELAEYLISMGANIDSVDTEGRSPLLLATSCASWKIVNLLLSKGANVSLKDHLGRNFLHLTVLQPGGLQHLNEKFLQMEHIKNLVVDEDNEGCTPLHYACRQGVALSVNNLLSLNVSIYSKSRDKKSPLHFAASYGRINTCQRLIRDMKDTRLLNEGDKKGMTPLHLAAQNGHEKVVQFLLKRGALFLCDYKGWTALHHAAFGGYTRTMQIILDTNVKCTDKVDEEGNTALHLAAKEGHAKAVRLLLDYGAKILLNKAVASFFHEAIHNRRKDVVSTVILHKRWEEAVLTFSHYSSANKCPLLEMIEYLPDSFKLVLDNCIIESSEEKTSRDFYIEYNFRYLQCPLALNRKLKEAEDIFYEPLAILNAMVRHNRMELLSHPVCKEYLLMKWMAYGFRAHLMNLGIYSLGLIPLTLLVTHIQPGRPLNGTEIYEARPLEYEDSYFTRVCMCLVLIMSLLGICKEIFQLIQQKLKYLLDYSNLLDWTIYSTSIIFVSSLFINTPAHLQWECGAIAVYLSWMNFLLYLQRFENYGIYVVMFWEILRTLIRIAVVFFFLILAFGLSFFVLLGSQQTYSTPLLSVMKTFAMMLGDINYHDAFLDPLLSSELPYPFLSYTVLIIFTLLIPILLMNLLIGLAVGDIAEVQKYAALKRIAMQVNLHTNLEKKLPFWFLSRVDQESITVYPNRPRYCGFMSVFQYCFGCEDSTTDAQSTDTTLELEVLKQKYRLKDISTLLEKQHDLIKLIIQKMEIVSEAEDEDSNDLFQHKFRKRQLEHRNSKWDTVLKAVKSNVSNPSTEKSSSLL
Experimental: All cell culture reagents were purchased from Life Technologies. HEK293 cells were transfected transiently with the corresponding plasmids using lipofectamine 2000 (Life Technologies). Transfection efficiency was monitored by co-transfecting EGFP plasmid which codes for the enhanced green fluorescent protein. Electrophysiological recordings were performed between 24 and 36 h after transfection.
as §2, with “The internal solution was as follows (in mM): 140 CsCl, 10 HEPES, 5 EGTA, 0.1 CaCl2 and 1 MgCl2, with pH adjusted to 7.2 by CsOH and osmolarity 295–300 mOsm.” left out

hTRPA1 = biological target: T2, hTRPA1 (Homo sapiens, UniProt O75762); test: cell-based; type: cell-based; conditions: 30 μM, calcium-free external solution
T2 construct: expressed in transfected cells; host or cells: HEK293, transient, EGFP plasmid co-transfected
Experimental: as §1, §2

hens [2] = test: Transmission electron microscopy of hen spinal cord and sciatic nerve; type: in vivo; conditions: 21 days after exposure
Experimental: For hens, the animals were anesthetized with sodium pentobarbital (100 mg kg^−1) and killed 21 days after exposure to TOCP and malathion. They were then perfused with normal saline followed immediately by 4% paraformaldehyde. The lumbar spinal cord at approximately the L2-L3 level and the sciatic nerve of the left leg were removed and fixed by immersion in ice-cold 2.5% glutaraldehyde. Subsequently, the samples were post-fixed in 1% OsO4 for 1 h, dehydrated with the ethanol series, and embedded in epon resin. Sixty-nanometer ultra-thin sections were double stained with lead citrate and uranyl acetate and examined with an electron microscopy.

rTRPA1 = biological target: T3, rTRPA1 (Rattus norvegicus, UniProt Q6RI86); test: Whole-cell patch-clamp, HEK293 cells expressing rTRPA1; type: cell-based; conditions: 30 μM, calcium-free external solution
T3 construct: expressed in transfected cells; host or cells: HEK293, transient
Experimental: as §1, §2

[3] = system: hTRPA1 carrying single mutations (C414A, C421A, C621A, C641A, C665A or K710R); test: Whole-cell patch-clamp of mutant hTRPA1 channels; type: cell-based, human; conditions: 30 μM flufenamic acid
Experimental: as §1
Whole-cell patch-clamp recordings in DRG neurons (small diameter, […]) and HEK293 cells were operated at room temperature (23–25 °C) using EPC-10 amplifier and Patch Master Software (HEKA). […] Currents were sampled at 10 kHz and low-pass filtered at 2.9 kHz. The internal solution was as follows (in mM): 140 CsCl, 10 HEPES, 5 EGTA, 0.1 CaCl2 and 1 MgCl2, with pH adjusted to 7.2 by CsOH and osmolarity 295–300 mOsm. […] TRPA1 currents development was monitored with repetitive injections of 300 ms duration voltage ramps from −100 to +100 mV every 2 s and the holding potential was set to 0 mV for 50 ms, existing in both sides of the voltage ramp. […]

T2 sequence (O75762 whole entry): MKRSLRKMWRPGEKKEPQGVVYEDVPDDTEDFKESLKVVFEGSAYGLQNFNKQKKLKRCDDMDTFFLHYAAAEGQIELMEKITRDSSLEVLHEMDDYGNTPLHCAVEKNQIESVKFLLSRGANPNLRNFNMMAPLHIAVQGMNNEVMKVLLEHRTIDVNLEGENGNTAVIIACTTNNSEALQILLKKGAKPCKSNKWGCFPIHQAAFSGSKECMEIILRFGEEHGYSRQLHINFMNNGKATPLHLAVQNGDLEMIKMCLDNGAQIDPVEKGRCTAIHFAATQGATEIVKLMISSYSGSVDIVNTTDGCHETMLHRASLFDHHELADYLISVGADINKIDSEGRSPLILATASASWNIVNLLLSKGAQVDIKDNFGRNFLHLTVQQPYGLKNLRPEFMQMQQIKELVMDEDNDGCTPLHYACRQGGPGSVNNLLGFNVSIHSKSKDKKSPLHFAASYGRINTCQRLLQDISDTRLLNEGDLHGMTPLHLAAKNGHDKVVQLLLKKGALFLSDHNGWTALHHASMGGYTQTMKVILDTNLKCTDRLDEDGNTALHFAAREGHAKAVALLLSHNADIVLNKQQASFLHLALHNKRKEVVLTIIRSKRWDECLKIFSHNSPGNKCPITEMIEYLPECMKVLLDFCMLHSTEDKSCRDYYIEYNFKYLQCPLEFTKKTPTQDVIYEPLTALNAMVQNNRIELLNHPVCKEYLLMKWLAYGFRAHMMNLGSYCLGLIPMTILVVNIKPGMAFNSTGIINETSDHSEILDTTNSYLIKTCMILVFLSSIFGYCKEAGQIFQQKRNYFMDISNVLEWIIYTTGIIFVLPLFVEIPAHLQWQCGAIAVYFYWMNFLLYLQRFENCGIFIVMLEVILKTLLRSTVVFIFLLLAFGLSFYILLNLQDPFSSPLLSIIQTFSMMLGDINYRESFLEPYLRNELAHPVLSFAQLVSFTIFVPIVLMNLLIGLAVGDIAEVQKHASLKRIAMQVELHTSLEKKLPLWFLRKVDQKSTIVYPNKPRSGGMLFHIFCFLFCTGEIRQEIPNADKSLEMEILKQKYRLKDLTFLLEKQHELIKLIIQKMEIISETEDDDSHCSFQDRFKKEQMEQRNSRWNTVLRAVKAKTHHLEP
T3 sequence (Q6RI86 whole entry): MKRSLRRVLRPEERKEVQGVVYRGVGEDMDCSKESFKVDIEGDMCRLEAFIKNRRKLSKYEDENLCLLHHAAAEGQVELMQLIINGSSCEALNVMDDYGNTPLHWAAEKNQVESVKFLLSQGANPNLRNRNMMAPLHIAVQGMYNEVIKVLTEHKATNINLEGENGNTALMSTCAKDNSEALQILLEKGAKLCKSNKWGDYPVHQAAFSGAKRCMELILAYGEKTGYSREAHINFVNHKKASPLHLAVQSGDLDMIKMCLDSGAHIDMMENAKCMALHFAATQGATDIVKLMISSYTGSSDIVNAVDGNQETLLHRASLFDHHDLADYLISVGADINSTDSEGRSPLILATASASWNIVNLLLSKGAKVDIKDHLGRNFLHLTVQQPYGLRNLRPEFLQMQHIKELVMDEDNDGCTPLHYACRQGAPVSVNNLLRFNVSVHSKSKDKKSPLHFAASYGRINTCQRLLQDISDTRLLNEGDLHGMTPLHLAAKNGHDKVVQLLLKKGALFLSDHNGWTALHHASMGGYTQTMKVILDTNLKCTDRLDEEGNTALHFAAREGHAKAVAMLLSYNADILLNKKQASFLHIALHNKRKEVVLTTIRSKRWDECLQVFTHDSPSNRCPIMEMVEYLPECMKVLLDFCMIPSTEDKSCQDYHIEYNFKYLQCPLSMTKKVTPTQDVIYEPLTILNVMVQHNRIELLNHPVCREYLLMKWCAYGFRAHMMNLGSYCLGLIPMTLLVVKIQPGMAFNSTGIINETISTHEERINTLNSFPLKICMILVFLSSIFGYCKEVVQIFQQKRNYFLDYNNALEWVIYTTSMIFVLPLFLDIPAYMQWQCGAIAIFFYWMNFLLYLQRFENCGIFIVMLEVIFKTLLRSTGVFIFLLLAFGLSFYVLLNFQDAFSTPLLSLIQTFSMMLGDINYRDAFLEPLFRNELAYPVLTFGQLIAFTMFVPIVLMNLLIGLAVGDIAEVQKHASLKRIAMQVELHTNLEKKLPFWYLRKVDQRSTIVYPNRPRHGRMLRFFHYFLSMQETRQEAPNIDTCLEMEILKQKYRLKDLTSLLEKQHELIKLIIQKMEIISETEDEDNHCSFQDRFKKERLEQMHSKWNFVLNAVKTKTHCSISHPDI
Sequence of mTRPA1 (Q8BLA8 whole entry): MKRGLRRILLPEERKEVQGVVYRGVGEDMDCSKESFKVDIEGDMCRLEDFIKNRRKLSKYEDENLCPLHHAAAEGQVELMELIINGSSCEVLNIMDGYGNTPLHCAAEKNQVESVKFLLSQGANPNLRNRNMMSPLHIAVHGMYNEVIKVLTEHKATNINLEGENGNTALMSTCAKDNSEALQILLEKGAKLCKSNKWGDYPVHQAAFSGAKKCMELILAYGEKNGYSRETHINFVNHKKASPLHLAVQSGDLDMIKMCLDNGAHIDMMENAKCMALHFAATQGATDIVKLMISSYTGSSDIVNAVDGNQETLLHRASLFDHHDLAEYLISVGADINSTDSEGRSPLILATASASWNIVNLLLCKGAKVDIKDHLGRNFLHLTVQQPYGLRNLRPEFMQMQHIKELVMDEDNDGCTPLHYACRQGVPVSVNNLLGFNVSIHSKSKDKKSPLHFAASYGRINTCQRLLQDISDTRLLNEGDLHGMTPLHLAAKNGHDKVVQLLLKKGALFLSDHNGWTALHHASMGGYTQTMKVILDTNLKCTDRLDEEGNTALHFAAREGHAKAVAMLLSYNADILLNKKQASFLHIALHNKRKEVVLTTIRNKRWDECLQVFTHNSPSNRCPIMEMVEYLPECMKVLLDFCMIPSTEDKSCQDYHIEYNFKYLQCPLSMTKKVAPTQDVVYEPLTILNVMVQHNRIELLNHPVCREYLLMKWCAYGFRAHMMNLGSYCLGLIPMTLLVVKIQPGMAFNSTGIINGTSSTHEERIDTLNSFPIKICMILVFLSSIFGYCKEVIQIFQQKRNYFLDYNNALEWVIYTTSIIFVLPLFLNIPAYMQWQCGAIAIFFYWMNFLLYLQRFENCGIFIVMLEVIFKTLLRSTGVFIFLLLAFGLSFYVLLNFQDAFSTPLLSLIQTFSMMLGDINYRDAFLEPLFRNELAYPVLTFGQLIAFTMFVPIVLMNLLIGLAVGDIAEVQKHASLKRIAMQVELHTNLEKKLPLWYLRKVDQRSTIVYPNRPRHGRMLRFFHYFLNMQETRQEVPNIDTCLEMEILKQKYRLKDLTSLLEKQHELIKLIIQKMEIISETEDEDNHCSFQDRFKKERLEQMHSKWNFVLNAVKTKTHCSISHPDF

| SMILES | activation of mTRPA1 whole-cell currents (mTRPA1) | clinical symptoms of delayed neuropathy (hens [1]) | EC50 (cTRPA1) [µM] | activation of cTRPA1 whole-cell currents (cTRPA1; calcium-free external solution) | activation of hTRPA1 whole-cell currents (hTRPA1) | damage of spinal cord and sciatic nerve (TEM) (hens [2]) | activation of rTRPA1 whole-cell currents (rTRPA1) | role of the mutated residues (except C414) for activation of TRPA1 [3] |
| --- | --- | --- | --- | --- | --- | --- | --- | --- |
| Cc1ccccc1OP(=O)(Oc1ccccc1C)Oc1ccccc1C [TOCP, tri-ortho-cresyl phosphate] | effectively activate | completely paralyzed | 15.8 ± 1.37 | effectively activate | effectively activate | severely damaged the spinal cord and sciatic nerve | effectively activate | – |
| O=C(O)c1ccccc1Nc1cccc(C(F)(F)F)c1 [flufenamic acid] | – | – | – | – | – | – | – | not essential |
